Measurements: patent publication US20130041005A1, “PHARMACEUTICAL COMPOSITIONS COMPRISING NEUROPILIN INHIBITORS, AND THEIR USE FOR THE PREVENTION AND/OR TREATMENT OF ANGIOGENIC DISORDERS AND CANCERS” (TRAGEX PHARMA, priority 2011, published 2013)

Key:
PC-3 [1] = test: WST-1 proliferation assay, PC-3; format: cell-based; conditions: Homo sapiens; PC-3, 0.05 μM
U87 glioblastoma = test: WST-1 proliferation assay, U87; format: cell-based; conditions: Homo sapiens
PC-3 [2] = test: WST-1 proliferation assay, PC-3; format: cell-based; conditions: Homo sapiens; for inhibition at 0.1 µM: PC-3, 0.1 μM; for inhibition at 0.5 µM: PC-3, 0.5 μM; for inhibition at 1 µM: PC-3, 1 μM; for IC50: Prostate PC-3, 72 h, read-out: Anti-proliferative activity IC50 (μM) ± SD
Text: (§1) Several cancer cell lines were used: breast cancer cells (MDA-MB-231 (ATTCC® Number HTB-26™), MDA-MB-436 (ATTCC® Number HTB-130™), MDA-MB-438, BT-474 (ATTCC® Number HTB-20™)); cervical cancer cells (HeLa (ATTCC® Number CCL-2™)); colon cancer cells (HCT-116 (ATTCC® Number CCL-247™) and HT-29 (ATTCC® Number HTB-38™)); osteosarcoma cells (U2OS (ATTCC® Number HTB-96™)); pancreas cancer cells (MIA PaCa-2 (ATTCC® Number CRL-1420™) and Panc-10.5 (ATTCC® Number CRL-2547™)); prostate cancer cells (PC-3 (ATTCC® Number CRL-1435™) and LNCaP (ATTCC® Number CRL-1740™)); brain cancer cells (U87 glioblastoma (ATTCC® Number HTB-14™) and SH-SYSY neuroblastoma (ATTCC® Number CRL-2266™)).
(§2) All the cancer cell lines were maintained in cultured in DMEM GlutaMAX™ (GIBCO Invitrogen, France, cat no 31966047) enhanced with 10% foetal bovine serum (GIBCO Invitrogen, France, cat no 10270-106) and 1% penicillin G/streptomycin (GIBCO Invitrogen, France, cat no 15140-122). Only Panc-10.5 cells were cultivated in RPMI 1640 medium (Gibco) supplemented with 2 mM L-glutamine, 1.5 g/L sodium bicarbonate, 4.5 g/L glucose, 10 mM HEPES, 1 mM sodium pyruvate, 10 Units/ml human insulin, […] (SVF): 15% (75 ml in 500 ml of medium).
(§3) Cells were grown as subconfluent monolayer and cultured in 75 cm^2 flasks at 37° C., 5% CO2 in a humidified atmosphere, and medium was changed every two days. Only cells from passages 2-6 were used for the experiments.
(§4) After observation of cells under the microscope, old media were removed and the adherent cells washed gently twice with PBS (Phosphate Buffer Saline, —Ca^2+, —Mg^2+, Lonza cat no: 17-512F/12). All cells were detached with 3 ml of trypsin/EDTA (chelator of calcium and magnesium ions) (Lonza), incubated for 5 min at 37° C., and examined using a microscope to ensure that the cells were detached and floating. Then, 3 ml TNS (Trypsin Neutralizing Solution, Lonza, France, cat no CC-5002) or of culture medium were added to inactivate the trypsin, and the cell suspension was transferred in a falcon and centrifuged for 7 min at 1400 rpm. The supernatant was removed and the cell pellet resuspended in […] of culture medium. 50 μl of this solution were transferred in 20 μl of isotonic solution and the cells were counted by count cellular (Beckman Coulter). At day 0, 200 μl of cellular suspension (3.10^3 cells/well for the HUVEC cells, breast cancer cells (MDA-MB-231 1.10^4 cells/well, MDA-MB-436 1.10^4 cells/well, MDA-MB-438 2.10^4 cells/well, BT-474 2.5.10^4 cells/well); cervical cancer cells (HeLa 5.000 cells/well); colon cancer cells (HCT-116 5.10^3 cells/well, HCT-29 1.1.10^4 cells/well); osteosarcoma cells (U2OS 8.10^3 cells/well); pancreas cancer cells (MIA PaCa-2 5.10^3 cells/well, Panc-10.5 1.5.10^4 cells/well); prostate cancer cells (PC-3 4.10^3 cells/well, LNCaP 2.10^4 cells/well); brain cancer cells (U87 5.10^3 cells/well, SH-SYSY 8.10^4 cells/well)) were then plated on 96 well plates and incubated at 37° C. in a humidified atmosphere of 5% CO2 for 24 h.
(§5) At day 1, the compounds 1 or 2 of the invention were added at increasing concentrations (0.1-10 μM) in the wells and plates were incubated at 37° C. in a humidified atmosphere of 5% CO2 for 72 h.
(§6) The cell proliferation WST-1 assay is a colorimetric assay for the quantification of cell proliferation and viability, based on the enzymatic cleavage of the tetrazolium salt WST-1 added to the culture medium, to a water soluble colored formazan dye, detected by absorbance at 450 nm, by mitochondrial succinate-tetrazolium reductase in viable cells. An augmentation in enzyme activity will then lead to an increase in the amount of formazan dye formed, which directly correlates to the number of metabolically active cells in the culture.
(§7) After an incubation period of 72 h, at day 4, were prepared the 19 ml medium with reagent WST-1 1 ml ([…]). The medium was removed from the 96 microplate and 200 μl of solution WST-1/medium were added for each well. […]

Panc-10.5 = test: WST-1 proliferation assay, Panc-10.5; format: cell-based; conditions: Homo sapiens; for inhibition at 0.1 µM: PANC - 10.5, 0.1 μM; for inhibition at 0.5 µM: PANC - 10.5, 0.5 μM; for inhibition at 1 µM: PANC - 10.5, 1 μM; for IC50: Pancreas Panc-10.5, 72 h, read-out: Anti-proliferative activity IC50 (μM) ± SD
Text: as §1, §2, §3, §4, §5, §6, §7

U2OS = test: WST-1 proliferation assay, U2OS; format: cell-based; conditions: Homo sapiens; for IC50: Osteosarcoma U2OS, 72 h, read-out: Anti-proliferative activity IC50 (μM) ± SD; for inhibition at 0.1 µM / inhibition at 0.5 µM / inhibition at 1 µM: U2OS
Text: as §1, §2, §3, §4, §5, §6, §7

MDAMB-231 cells = test: Adhesion test (crystal violet), MDA-MB-231; format: cell-based, Human; conditions: MDAMB-231, FIGS. 1A-C
Description: The crystal violet (hexamethyl pararosaniline chloride) is used as biologic colorant. It enters in the living cells, allowing the visualisation of the dark purple adherent living cells on the bottom of the plate.
After an incubation period of 72 h, the adherent cells were fixed with […] paraformaldehyde
3% for 15 min at room temperature. The medium and non-adherent cells were removed, and the cells were washed extensively with […] PBS (+Ca^2+ and +Mg^2+) (Lonza) and then stained with 50 μl of crystal violet 0.04% for 30 min at room temperature. The cells were washed gently 3 times with 100 μl PBS and were permeabilised with 100 μl triton 2% for 15 min. The microplate was stirred to obtain a homogenous solution and absorbance was quantified at 580 nm by Microplate Manager 5.2.
The percentage of inhibition is calculated as follow: % inhibition=100−[(DOsample/DOcontrol)*100].

HCT-29 = test: WST-1 proliferation assay, HCT-29; format: cell-based; conditions: Homo sapiens; Colon HCT-29, 72 h; read-out: Anti-proliferative activity IC50 (μM) ± SD
Text: as §1, with “CRL-2266™)). […]” for “CRL-2266™)).”
(§8) After observation of cells under the microscope, old media were removed and the adherent cells washed gently twice with PBS (Phosphate Buffer Saline, —Ca^2+, —Mg^2+, Lonza cat no: 17-512F/12). […] 50 μl of this solution were transferred in 20 μl of isotonic solution and the cells were counted by count cellular (Beckman Coulter). […]
(§9) The cell proliferation WST-1 assay is a colorimetric assay for the quantification of cell proliferation and viability, based on the enzymatic cleavage of the tetrazolium salt WST-1 added to the culture medium, to a water soluble colored formazan dye, detected by absorbance at 450 nm, by mitochondrial succinate-tetrazolium reductase in viable cells. […]

MDA-MB-436 = test: WST-1 proliferation assay, MDA-MB-436; format: cell-based; conditions: Homo sapiens; Breast MDA-MB-436, 72 h; read-out: Anti-proliferative activity IC50 (μM) ± SD
Text: as §1, with “CRL-2266™)). […]” for “CRL-2266™)).”
as §8, §9

Row | Structure (SMILES) | inhibition at 0.05 µM (PC-3 [1]) [%] | inhibition at 0.05 µM (U87 glioblastoma) [%] | inhibition at 0.1 µM (PC-3 [2]) [%] | inhibition at 0.5 µM (PC-3 [2]) [%] | inhibition at 1 µM (PC-3 [2]) [%] | IC50 (PC-3 [2]) [µM] | inhibition at 0.1 µM (Panc-10.5) [%] | inhibition at 0.5 µM (Panc-10.5) [%] | inhibition at 1 µM (Panc-10.5) [%] | IC50 (Panc-10.5) [µM] | IC50 (U2OS) [µM] | inhibition at 0.1 µM (U2OS) [%] | inhibition at 0.5 µM (U2OS) [%] | inhibition at 1 µM (U2OS) [%] | inhibition of adhesion of cancer cells in culture (MDAMB-231 cells) | IC50 (HCT-29) [µM] | IC50 (MDA-MB-436) [µM]
1 | Cc1ccc(-c2nc3ccccc3[nH]2)cc1NC(=S)NC(=O)c1ccc2c(c1)OCCO2 [Compound 1, N-[5-(1H-benzimidazol-2-yl)-2-methylphenyl]-N′-(2,3-dihydro-1,4-benzodioxin-6-ylcarbonyl)thiourea] | 0 | 0 | 3 | 25 | 47 | 1.7 ± 0.04 | 21 | 44 | 56 | 1 | 2.3 ± 0.04 | 15 | 29 | 36 | inhibited the adhesion | 0.5 ± 0.05 | 1.5 ± 0.02
2 | O=C(NC(=S)Nc1cccc(-c2nc3ccccc3[nH]2)c1)c1ccc2c(c1)OCCO2 [Compound 2, N-[3-(1H-benzimidazol-2-yl)phenyl]-N′-(2,3-dihydro-1,4-benzodioxin-6-ylcarbonyl)thiourea] | 0 | 19 | 29 | 46 | 46 | 1.5 ± 0.12 | 51 | 62 | 65 | 0.1 ± 0.09 | 1.8 ± 0.05 | 31 | 41 | 44 | inhibited the adhesion | 0.1 ± 0.01 | 2.3 ± 0.03
